The supplement of paper PMC10307832

Legend:
Assay in all cases: relative viability (nuclei count vs DMSO), 5 days (fraction); higher = more cells survive
[1] = compound: C1COCCN1CC2=CC(=O)C(=CO2)OCCCCCSC3=C4C=CC(=CC4=NC=C3)C(F)(F)F [EHT 1864] + CC1(C)CCC(c2ccc(Cl)cc2)=C(CN2CCN(c3ccc(C(=O)NS(=O)(=O)c4ccc(N[C@H](CCN5CCOCC5)CSc5ccccc5)c(S(=O)(=O)C(F)(F)F)c4)cc3)CC2)C1 [Navitoclax] (partner 0.5 µM)
How it was run: (§1)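 Lung cancer cell lines in 1536-well plates were dosed by pin tool the day after seeding, either with one drug alone or with a fixed anchor-drug dose plus five library-drug doses (not always all listed) in √10 steps. After 5 days, cells were fixed and their nuclei stained in one step (final 0.05% Triton X-100, 1% formaldehyde, 1 ug/ml Hoechst), then counted on 4× images. Relative viability is the nuclei count in treated wells divided by that in vehicle wells. Values are medians of duplicate plates.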

[2] = compound: C1COCCN1CC2=CC(=O)C(=CO2)OCCCCCSC3=C4C=CC(=CC4=NC=C3)C(F)(F)F [EHT 1864] + C[C@]1(O)C[C@@H](c2nc(-c3ccc4ccc(-c5ccccc5)nc4c3)c3c(N)nccn32)C1 [Linsitinib] (partner 1 µM)
How it was run: as §1

[3] = compound: C1COCCN1CC2=CC(=O)C(=CO2)OCCCCCSC3=C4C=CC(=CC4=NC=C3)C(F)(F)F [EHT 1864] + Cc1nc(NC(=O)N2CCC[C@H]2C(N)=O)sc1-c1ccnc(C(C)(C)C(F)(F)F)c1 [Alpelisib] (partner 2 µM)
How it was run: as §1

[4] = compound: C1COCCN1CC2=CC(=O)C(=CO2)OCCCCCSC3=C4C=CC(=CC4=NC=C3)C(F)(F)F [EHT 1864] + O=C(CCCCCCC(=O)Nc1ccccc1)NO [Vorinostat] (partner 1 µM)
How it was run: as §1

Cell Line	relative viability ([1]; first compound 0.04 µM)	relative viability ([1]; first compound 0.1265 µM)	relative viability ([1]; first compound 0.4 µM)	relative viability ([1]; first compound 1.265 µM)	relative viability ([1]; first compound 4 µM)	relative viability ([2]; first compound 0.04 µM)	relative viability ([2]; first compound 0.1265 µM)	relative viability ([2]; first compound 0.4 µM)	relative viability ([2]; first compound 1.265 µM)	relative viability ([2]; first compound 4 µM)	relative viability ([3]; first compound 0.04 µM)	relative viability ([3]; first compound 0.1265 µM)	relative viability ([3]; first compound 0.4 µM)	relative viability ([3]; first compound 1.265 µM)	relative viability ([3]; first compound 4 µM)	relative viability ([4]; first compound 0.04 µM)	relative viability ([4]; first compound 0.1265 µM)	relative viability ([4]; first compound 0.4 µM)	relative viability ([4]; first compound 1.265 µM)	relative viability ([4]; first compound 4 µM)
NCI-H1792	0.68	0.54	0.648	0.616	0.718	0.514	0.376	0.556	0.57	0.628	0.664	0.584	0.627	0.72	0.792					
NCI-H1563						1.17	1.3	1.24	1.17	0.94	0.853	1.03	1.04	0.96	0.805					
NCI-H1299	1.02	1.02	1.05	0.986	0.984	0.903	0.877	0.981	0.969	0.936	0.973	0.974	0.983	1.05	1.08					
ChaGo-K-1	1.07	0.938	0.802		1.07											0.785	0.76	0.72	0.811	0.76
NCI-H358						0.759		0.738	0.794	0.639	0.798		0.877	0.965	0.837	0.645	0.652	0.612	0.68	0.559
NCI-H522																0.76	0.738	0.901	0.893	1.03
A549	1.16	1.2	0.952	1.18	0.912	0.598	0.658	0.641	0.599	0.639	0.637	0.735	0.694	0.805	0.712					
NCI-H650						0.94		1.01	0.947	0.884	1.05		1.23	1.02	1.09	0.497	0.308	0.413	0.457	0.478
LCLC-103H						1.12	0.83	1.01	1.09	1.39	1.05	0.888	0.956	1.03	1.07	0.758	0.666	0.791	0.779	0.712
NCI-H1650	1.12	0.783	1.14	1.4	1.18											0.529	0.54	0.592	0.623	0.521
Calu-6	0.816	0.7	0.876	0.757	0.764	0.99	0.737	0.96	0.875	0.893	0.983	0.932	0.948	1.01	0.904					
